Type in all cases: functional
Assay [1] concerns Staphylococcus aureus. As to the kind of experiment: Antibacterial activity against Staphylococcus aureus LCB0001 by two fold serial dilution method.
Assay [2] deals with Staphylococcus aureus. The assay can be described thus: Antibacterial activity against methicillin-resistant Staphylococcus aureus LCB0002 by two fold serial dilution method.
Assay [3] relates to Staphylococcus epidermidis. The assay can be described thus: Antibacterial activity against Staphylococcus epidermidis LCB0003 by two fold serial dilution method.
For assay [4], the system named is Staphylococcus epidermidis. The assay can be described thus: Antibacterial activity against methicillin-resistant Staphylococcus epidermidis LCB0004 by two fold serial dilution method.
In assay [5] the test system is Enterococcus faecalis. The assay can be described thus: Antibacterial activity against Enterococcus faecalis LCB0005 by two fold serial dilution method.
In assay [6] the test system is Enterococcus faecalis. As to the kind of experiment: Antibacterial activity against vancomycin-resistant Enterococcus faecalis LCB0006 by two fold serial dilution method.
Assay [7] has as its system Enterococcus faecalis. The assay can be described thus: Antibacterial activity against vancomycin and Linezolid resistant Enterococcus faecalis LCB0007 by two fold serial dilution method.
Assay [8] relates to Enterococcus faecium. The assay can be described thus: Antibacterial activity against vancomycin-resistant Enterococcus faecium LCB0008 by two fold serial dilution method.
The test system of assay [9] is Enterococcus faecium. As to the kind of experiment: Antibacterial activity against Enterococcus faecium LCB0009 by two fold serial dilution method.
Assay [10] has as its system Escherichia coli. The assay can be described thus: Antibacterial activity against Escherichia coli LCB0010 by two fold serial dilution method.
Assay [11] has as its system Escherichia coli. The assay can be described thus: Antibacterial activity against Escherichia coli LCB0011 by two fold serial dilution method.
In assay [12] the test system is Escherichia coli. The assay can be described thus: Antibacterial activity against Escherichia coli LCB0012 by two fold serial dilution method.
For a further assay, the system named is Pseudomonas aeruginosa. As to the kind of experiment: Antibacterial activity against Pseudomonas aeruginosa LCB0013 by two fold serial dilution method.
The test system of a further assay is Klebsiella pneumoniae. The assay can be described thus: Antibacterial activity against Klebsiella pneumoniae LCB0014 by two fold serial dilution method.
Another assay has as its system Haemophilus influenzae. As to the kind of experiment: Antibacterial activity against Haemophilus influenzae LCB0015 by two fold serial dilution method.
The next assay deals with Moraxella catarrhalis. The assay can be described thus: Antibacterial activity against Moraxella catarrhalis LCB0016 by two fold serial dilution method.

≈ marks a conversion by molar mass, not a printed value.

The values below come from ChEMBL document CHEMBL1156319, “Synthesis, crystal and antibacterial studies of diversely functionalized tetrahydropyridin-4-ol” (2010).

For the molecule `N[C@@H]1[C@H]2CN(c3nc4c(cc3F)c(=O)c(C(=O)O)cn4-c3ccc(F)cc3F)C[C@@H]12` [TROVAFLOXACIN], the MIC90 is less than 0.0625 µg/mL against Staphylococcus aureus [1]; 2 µg/mL (≈ 4.8 µM) against Staphylococcus aureus [2]; less than 0.0625 µg/mL in assay [3]; less than 0.0625 µg/mL in assay [4]; less than 0.0625 µg/mL in the assay on Enterococcus faecalis [5]; 16 µg/mL (≈ 38.4 µM) against Enterococcus faecalis [6]. For the same molecule, the MIC90 in the assay on Enterococcus faecalis [7] was 16 µg/mL (≈ 38.4 µM); against Enterococcus faecium [8], 128 µg/mL (≈ 307 µM); against Enterococcus faecium [9], 32 µg/mL (≈ 76.9 µM); against Escherichia coli [10], less than 0.0625 µg/mL; against Escherichia coli [11], less than 0.0625 µg/mL; in the assay with Escherichia coli [12] it was less than 0.0625 µg/mL. Besides, the MIC90 with Pseudomonas aeruginosa is 0.5 µg/mL (≈ 1.2 µM); in the assay with Klebsiella pneumoniae, 0.125 µg/mL (≈ 0.3 µM); against Haemophilus influenzae, less than 0.0625 µg/mL; with Moraxella catarrhalis it was less than 0.0625 µg/mL.

With `CCOC(=O)C1=C(O)CC(c2ccccc2)N(C(=O)CN2CCOCC2)C1c1ccccc1` (centres undefined), the MIC90 (with Staphylococcus aureus [1]; in assay [3]; with Enterococcus faecalis [5]; against Enterococcus faecium [9]; with Escherichia coli [10]; with Escherichia coli [11]) was more than 128 µg/mL throughout. The MIC90 against Escherichia coli [12] is more than 128 µg/mL; in the assay on Pseudomonas aeruginosa, more than 128 µg/mL; with Klebsiella pneumoniae, more than 128 µg/mL; in the assay on Haemophilus influenzae, more than 128 µg/mL; in the assay with Moraxella catarrhalis, 64 µg/mL (≈ 142 µM).

On to `CCOC(=O)C1=C(O)CC(c2ccccc2)N(C(=O)C(C)Oc2ccc3ccccc3c2)C1c1ccccc1` (centres undefined), for which the MIC90 (in the assay with Staphylococcus aureus [1]; in [3]; in the assay with Enterococcus faecalis [5]; against Enterococcus faecium [9]; against Escherichia coli [10]; in the assay on Escherichia coli [11]) was more than 128 µg/mL in each case. For the same molecule, the MIC90 in the assay on Escherichia coli [12], against Pseudomonas aeruginosa, against Klebsiella pneumoniae, with Haemophilus influenzae and against Moraxella catarrhalis was more than 128 µg/mL in each case.

For `CC(=O)NC[C@H]1CN(c2ccc(N3CCOCC3)c(F)c2)C(=O)O1` [LINEZOLID], the MIC90 against Staphylococcus aureus [1] came to 2 µg/mL (≈ 5.93 µM); against Staphylococcus aureus [2], 2 µg/mL (≈ 5.93 µM); in assay [3], 4 µg/mL (≈ 11.9 µM); in assay [4], 8 µg/mL (≈ 23.7 µM); against Enterococcus faecalis [5] it was 4 µg/mL (≈ 11.9 µM); against Enterococcus faecalis [6], 4 µg/mL (≈ 11.9 µM). In addition, the MIC90 in the assay on Enterococcus faecalis [7] is 64 µg/mL (≈ 190 µM); with Enterococcus faecium [8] it was 2 µg/mL (≈ 5.93 µM); against Enterococcus faecium [9] it was 4 µg/mL (≈ 11.9 µM); against Escherichia coli [10], more than 128 µg/mL; with Escherichia coli [11], 16 µg/mL (≈ 47.4 µM); against Escherichia coli [12], 128 µg/mL (≈ 379 µM). Besides, the MIC90 in the assay with Pseudomonas aeruginosa was more than 128 µg/mL; against Klebsiella pneumoniae, more than 128 µg/mL; with Haemophilus influenzae, 16 µg/mL (≈ 47.4 µM); against Moraxella catarrhalis, 4 µg/mL (≈ 11.9 µM).

As to `CCOC(=O)C1=C(O)CC(c2ccccc2)N(C(=O)CSc2ccc3ccccc3c2)C1c1ccccc1` (centres undefined), the MIC90 against Staphylococcus aureus [1] is more than 128 µg/mL; in assay [3], more than 128 µg/mL; with Enterococcus faecalis [5], more than 128 µg/mL; in the assay on Enterococcus faecium [9], 128 µg/mL (≈ 244 µM); in the assay on Escherichia coli [10] it was more than 128 µg/mL; in the assay with Escherichia coli [11], more than 128 µg/mL. For the same molecule, the MIC90 against Escherichia coli [12], against Pseudomonas aeruginosa, against Klebsiella pneumoniae, against Haemophilus influenzae and in the assay on Moraxella catarrhalis was more than 128 µg/mL throughout.

On to `CCOC(=O)C1=C(O)CC(c2ccccc2)N(C(=O)CN2CCC(=O)CC2)C1c1ccccc1` (centres undefined), for which the MIC90 (in the assay on Staphylococcus aureus [1]; in assay [3]; with Enterococcus faecalis [5]; with Enterococcus faecium [9]; against Escherichia coli [10]; with Escherichia coli [11]) was more than 128 µg/mL throughout. The MIC90 against Escherichia coli [12] is more than 128 µg/mL; in the assay on Pseudomonas aeruginosa, more than 128 µg/mL; against Klebsiella pneumoniae, more than 128 µg/mL; against Haemophilus influenzae, more than 128 µg/mL; against Moraxella catarrhalis, 64 µg/mL (≈ 138 µM).

Regarding `CCOC(=O)C1=C(O)CC(c2ccccc2)N(C(=O)COc2ccc3ccccc3c2)C1c1ccccc1` (centres undefined), the MIC90 against Staphylococcus aureus [1] was more than 128 µg/mL; in assay [3], more than 128 µg/mL; against Enterococcus faecalis [5], more than 128 µg/mL; against Enterococcus faecium [9], 128 µg/mL (≈ 252 µM); against Escherichia coli [10] it was more than 128 µg/mL; with Escherichia coli [11] it was more than 128 µg/mL. Moreover, the MIC90 in the assay on Escherichia coli [12], against Pseudomonas aeruginosa, in the assay on Klebsiella pneumoniae, in the assay with Haemophilus influenzae and with Moraxella catarrhalis was more than 128 µg/mL each time.

Take `CCOC(=O)C1=C(O)CC(c2ccccc2)N(C(=O)C(C)N2CCC(=O)CC2)C1c1ccccc1` (centres undefined): the MIC90 (in the assay on Staphylococcus aureus [1]; in assay [3]; with Enterococcus faecalis [5]; with Enterococcus faecium [9]; against Escherichia coli [10]; against Escherichia coli [11]) was more than 128 µg/mL throughout. The MIC90 was 128 µg/mL (≈ 269 µM) in the assay with Escherichia coli [12]; more than 128 µg/mL with Pseudomonas aeruginosa; more than 128 µg/mL in the assay with Klebsiella pneumoniae; more than 128 µg/mL in the assay with Haemophilus influenzae; more than 128 µg/mL against Moraxella catarrhalis.

Take `CCOC(=O)C1=C(O)CC(c2ccccc2)N(C(=O)C(C)n2ccnc2)C1c1ccccc1` (centres undefined): the MIC90 in the assay with Staphylococcus aureus [1] was 32 µg/mL (≈ 71.8 µM); in assay [3], more than 128 µg/mL; in the assay with Enterococcus faecalis [5], more than 128 µg/mL; against Enterococcus faecium [9] it was more than 128 µg/mL; against Escherichia coli [10] it was more than 128 µg/mL; against Escherichia coli [11], more than 128 µg/mL. Besides, the MIC90 was 64 µg/mL (≈ 144 µM) in the assay on Escherichia coli [12]; 128 µg/mL (≈ 287 µM) against Pseudomonas aeruginosa; 128 µg/mL (≈ 287 µM) with Klebsiella pneumoniae; more than 128 µg/mL against Haemophilus influenzae; 64 µg/mL (≈ 144 µM) against Moraxella catarrhalis.
